Target: Human CGRP Receptor (Homo sapiens (Human), UniProt O60894+Q16602)
Experiment: Radioligand binding assay, [125I]-CGRP displacement on SK-N-MC membranes
Method: Tissue Culture. SK-N-MC cells were grown at 37° C. in 5% CO2 as a monolayer in medium consisting of MEM with Earle's salts and L-glutamine (Invitrogen) supplemented with 10% fetal bovine serum (Invitrogen).
Membrane Preparation. Crude membranes were prepared from SK-N-MC cells expressing CGRP receptors. […] The cells were transferred from plates to polypropylene tubes (16×100 mm) and homogenized using a polytron. Homogenates were centrifuged at 32,000×g for 30 min. The pellets were resuspended in cold hypotonic lysis buffer with 0.1% mammalian protease inhibitor cocktail (Sigma) and assayed for protein concentration. The SK-N-MC homogenate was aliquoted and stored at −80° C.
Radioligand Binding Assay. The compounds of invention were solubilized and carried through serial dilutions using 100% DMSO. Aliquots from the compound serial dilutions were further diluted 25 fold into assay buffer (50 mM Tris-Cl pH 7.5, 5 mM MgCl2, 0.005% Triton X-100) and transferred (volume 50 μl) into 96 well assay plates. […] SK-N-MC membranes were thawed, diluted in assay buffer with fresh 0.1% mammalian protease inhibitor cocktail (Sigma), and re-homogenized. SK-N-MC homogenate (7 μg/well) was added in a volume of 100 μl. The assay plates were then incubated at room temperature for 2 h. Assays were stopped by addition of excess cold wash buffer (50 mM Tris-Cl pH 7.5, 0.1% BSA) immediately followed by filtration over glass fiber filters (Whatman GF/B) previously soaked in 0.5% PEI. Non-specific binding was defined with 1 μM beta-CGRP (Bachem). Protein bound radioactivity was determined using a gamma or scintillation counter. […] All compounds of invention were evaluated in at least two separate experiments.

Chain of Human CGRP Receptor (Q16602 23-461): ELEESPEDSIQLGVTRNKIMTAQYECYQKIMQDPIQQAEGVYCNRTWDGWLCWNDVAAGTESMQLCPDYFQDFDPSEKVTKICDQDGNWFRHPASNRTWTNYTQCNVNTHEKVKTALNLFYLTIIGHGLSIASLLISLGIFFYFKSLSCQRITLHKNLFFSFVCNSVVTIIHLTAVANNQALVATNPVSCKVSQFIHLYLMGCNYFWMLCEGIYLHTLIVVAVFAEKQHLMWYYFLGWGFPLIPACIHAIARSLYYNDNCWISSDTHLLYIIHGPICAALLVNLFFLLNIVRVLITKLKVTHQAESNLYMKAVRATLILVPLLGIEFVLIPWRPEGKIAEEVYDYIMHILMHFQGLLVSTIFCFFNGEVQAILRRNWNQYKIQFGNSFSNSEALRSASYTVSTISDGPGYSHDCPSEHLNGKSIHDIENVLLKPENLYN
Chain of Human CGRP Receptor (O60894 27-148): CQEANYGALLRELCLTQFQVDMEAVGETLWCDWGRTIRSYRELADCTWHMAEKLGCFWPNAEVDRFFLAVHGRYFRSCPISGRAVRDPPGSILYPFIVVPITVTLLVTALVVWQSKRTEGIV

SMILES	IC50 [nM]
Cc1cc(CC(OC(=O)N2CCC(c3cc4ccccc4[nH]c3=O)CC2)c2ncc3n2CCN(Cc2ccccc2)C3)cc2cn[nH]c12 (racemic) [Example 1, (±)-1-(7-Benzyl-5,6,7,8-tetrahydroimidazo[1,5-c]pyrazin-3-yl)-2-(7-methyl-1H-indazol-5-yl)ethyl 4-(2-oxo-1,2-dihydroquinolin-3-yl)piperidine-1-carboxylate]	0.26
CCN1CCn2c(cnc2C(Cc2cc(C)c3[nH]ncc3c2)OC(=O)N2CCC(c3cc4ccccc4[nH]c3=O)CC2)C1 (racemic) [Example 2, (±)-1-(7-ethyl-5,6,7,8-tetrahydroimidazo[1,5-a]pyrazin-3-yl)-2-(7-methyl-1H-indazol-5-yl)ethyl 4-(2-oxo-1,2-dihydroquinolin-3-yl)piperidine-1-carboxylate]	1.7
Cc1cc(CC(OC(=O)N2CCC(c3cc4ccccc4[nH]c3=O)CC2)c2ncc3n2CCNC3)cc2cn[nH]c12 (racemic) [Example 3, (±)-2-(7-methyl-1H-indazol-5-yl)-1-(5,6,7,8-tetrahydroimidazo[1,5-a]pyrazin-3-yl)ethyl 4-(2-oxo-1,2-dihydroquinolin-3-yl)piperidine-1-carboxylate]	2.95
Cc1cc(CC(OC(=O)N2CCC(c3cc4ccccc4[nH]c3=O)CC2)c2ncc3n2CCN(C2CCCCC2)C3)cc2cn[nH]c12 (racemic) [Example 4, (±)-1-(7-Cyclohexyl-5,6,7,8-tetrahydroimidazo[1,5-a]pyrazin-3-yl)-2-(7-methyl-1H-indazol-5-yl)ethyl 4-(2-oxo-1,2-dihydroquinolin-3-yl)piperidine-1-carboxylate]	0.22

From US9695176B2, “Substituted imidazo[1,5-a]pyrazines as CGRP receptor antagonists” (BRISTOL-MYERS SQUIBB COMPANY, priority 2012, dated 2017)
